In patent publication US9512113B2, “N-(tetrazol-5-yl)- and N-(triazol-5-yl)arylcarboxylic thioamides and use thereof as herbicides” (BAYER CROPSCIENCE AG, priority 2012, dated 2016):

Key:
Format in all cases: in vivo
[1] = system: Zea mays (corn); assay: Pre-emergence action, damage to crop plants; conditions: Table C, 320 g/ha
Source text: (§1) Seeds of monocotyledonous and dicotyledonous weed plants and crop plants are placed in wood-fiber pots in sandy loam and covered with soil. The compounds according to the invention, formulated in the form of wettable powders (WP) or as emulsion concentrates (EC), are then applied as aqueous suspension or emulsion at a water application rate of 600 to 800 I/ha (converted) with the addition of 0.2% of wetting agent to the surface of the covering soil. After the treatment, the pots are placed in a greenhouse and kept under good growth conditions for the test plants. The damage to the test plants is assessed visually after a test period of 3 weeks by comparison with untreated controls (herbicidal activity in percent (%): 100% action=the plants have died, 0% action=like control plants). Here, for example, the compounds Nos 1-8, 1-26 and 4-7, at an application rate of 80 g/ha, show an activity of at least 80% against Alopecurus myosuroides, Avena fatua, Cyperus serotinus, Echinochloa crus galli, Lolium multiflorum, Setaria viridis, Abutilon theophrasti, Amaranthus retroflexus, Matricaria inodora, Pharbitis purpureum, Stellaria media, Viola tricolor and Veronica persica.
(§2) These comparative experiments were carried out under the conditions mentioned above by the pre-emergence method and the post-emergence method. In the tables below, the top line in each case states the compound according to the invention, and the bottom line states the compound from WO 2012/028579 A1.

[2] = system: Avena fatua; assay: Pre-emergence herbicidal action against harmful plants; conditions: Table C, 320 g/ha
Source text: as §1, §2

[3] = system: Polygonum convolvulus; assay: as above
Source text: as §1, §2

[4] = system: Triticum aestivum (wheat); assay: Pre-emergence action, damage to crop plants; conditions: Table D, 320 g/ha
Source text: as §1, §2

[5] = system: Pharbitis purpureum; assay: Pre-emergence herbicidal action against harmful plants
Source text: as §1, §2

[6] = system: Brassica napus (oilseed rape); assay: Pre-emergence action, damage to crop plants
Source text: as §1, §2

[7] = system: Abutilon theophrasti; assay: Pre-emergence herbicidal action against harmful plants
Source text: as §1, §2

[8] = system: Amaranthus retroflexus; assay: as above; conditions: Table E, 320 g/ha
Source text: as §1, §2

[9] = system: Polygonum convolvulus; assay: Post-emergence herbicidal action against harmful plants
Procedure: (§3) Seeds of monocotyledonous and dicotyledonous weed and crop plants are placed in sandy loam in wood-fiber pots, covered with soil and cultivated in a greenhouse under good growth conditions. 2 to 3 weeks after sowing, the test plants are treated at the one-leaf stage. The compounds according to the invention, formulated in the form of wettable powders (WP) or as emulsion concentrates (EC), are then sprayed as aqueous suspension or emulsion at a water application rate of 600 to 800 I/ha (converted) with the addition of 0.2% of wetting agent onto the green parts of the plants. After the test plants have been left to stand in the greenhouse under optimal growth conditions for about 3 weeks, the action of the preparations is assessed visually in comparison to untreated controls (herbicidal action in percent (%): 100% action=the plants have died, 0% action=like control plants). Here, for example, the compounds Nos 1-8 and 1-83, at an application rate of 80 g/ha, show an activity of at least 80% against Alopecurus myosuroides, Avena fatua, Cyperus serotinus, Echinochloa crus galli, Lolium multiflorum, Setaria viridis, Abutilon theophrasti, Amaranthus retroflexus, Matricaria inodora, Pharbitis purpureum, Polygonum convolvulus, Stellaria media, Viola tricolor and Veronica persica.
as §2

[10] = system: Pharbitis purpureum; assay: as above; conditions: Table G, 5 g/ha
Procedure: as §3, §2

[11] = system: Oryza sativa (rice); assay: Post-emergence action, damage to crop plants; conditions: Table G, 5 g/ha
Procedure: as §3, §2

[12] = system: Triticum aestivum (wheat); assay: Post-emergence action, damage to crop plants
Procedure: as §3, §2

[13] = system: Oryza sativa (rice); assay: Pre-emergence action, damage to crop plants; conditions: 20 g/ha
Source text: as §1, §2

[14] = system: Echinochloa crus galli; assay: Pre-emergence herbicidal action against harmful plants; conditions: 20 g/ha
Source text: as §1, §2

[15] = system: Cyperus serotinus; assay: as above; conditions: Table B, 20 g/ha
Source text: as §1, §2

[16] = system: Setaria viridis; assay: Post-emergence herbicidal action against harmful plants; conditions: Table H, 5 g/ha
Procedure: as §3, §2

[17] = system: Echinochloa crus galli; assay: as above; conditions: Table H, 5 g/ha
Procedure: as §3, §2

[18] = system: Amaranthus retroflexus; assay: as above; conditions: Table H, 5 g/ha
Procedure: as §3, §2

[19] = system: Alopecurus myosuroides; assay: as above; conditions: Table I, 80 g/ha
Procedure: as §3, §2

[20] = system: Lolium multiflorum; assay: as above; conditions: 80 g/ha
Procedure: as §3, §2

[21] = system: Zea mays (corn); assay: Post-emergence action, damage to crop plants; conditions: 80 g/ha
Procedure: as §3, §2

[22] = system: Avena fatua; assay: Post-emergence herbicidal action against harmful plants; conditions: Table K, 80 g/ha
Procedure: as §3, §2

Cn1nnnc1NC(=S)c1ccc(S(C)(=O)=O)c(COCC(F)(F)F)c1Cl
Damage to crop plants ZEAMX [1]: 0%
Herbicidal efficacy against AVEFA [2]: 90%
Herbicidal efficacy against POLCO ([3]; Table C, 320 g/ha): 90%

Cn1nnnc1NC(=O)c1ccc(S(C)(=O)=O)c(COCC(F)(F)F)c1Cl
Damage to crop plants ZEAMX [1]: 20%
Herbicidal efficacy against AVEFA [2]: 70%
Herbicidal efficacy against POLCO ([3]; Table C, 320 g/ha): 50%

Cc1nc(C(F)(F)F)ccc1C(=S)Nc1nnnn1C
Damage to crop plants TRZAS [4]: 0%
Herbicidal efficacy against POLCO ([3]; Table D, 320 g/ha): 80%
Herbicidal efficacy against PHBPU ([5]; Table D, 320 g/ha): 80%

Cc1nc(C(F)(F)F)ccc1C(=O)Nc1nnnn1C
Damage to crop plants TRZAS [4]: 20%
Herbicidal efficacy against POLCO ([3]; Table D, 320 g/ha): 60%
Herbicidal efficacy against PHBPU ([5]; Table D, 320 g/ha): 60%

Cc1c(C(=S)Nc2ncnn2C)ccc(S(C)(=O)=O)c1S(C)(=O)=O
Damage to crop plants BRSNW ([6]; Table E, 320 g/ha): 0%
Herbicidal efficacy against ABUTH ([7]; Table E, 320 g/ha): 80%
Herbicidal efficacy against AMARE [8]: 90%

Cc1c(C(=O)Nc2ncnn2C)ccc(S(C)(=O)=O)c1S(C)(=O)=O
Damage to crop plants BRSNW ([6]; Table E, 320 g/ha): 20%
Herbicidal efficacy against ABUTH ([7]; Table E, 320 g/ha): 0%
Herbicidal efficacy against AMARE [8]: 40%

CCOc1c(S(C)(=O)=O)ccc(C(=S)Nc2nnnn2C)c1Cl
Herbicidal efficacy against POLCO ([9]; Table G, 5 g/ha): 60%
Herbicidal efficacy against PHBPU [10]: 80%
Damage to crop plants ORYSA [11]: 10%
Damage to crop plants TRZAS ([12]; Table G, 5 g/ha): 0%

CCOc1c(S(C)(=O)=O)ccc(C(=O)Nc2nnnn2C)c1Cl
Herbicidal efficacy against POLCO ([9]; Table G, 5 g/ha): 40%
Herbicidal efficacy against PHBPU [10]: 20%
Damage to crop plants ORYSA [11]: 40%
Damage to crop plants TRZAS ([12]; Table G, 5 g/ha): 30%

Cn1nnnc1NC(=S)c1ccc(C(F)(F)F)cc1S(C)(=O)=O
Herbicidal efficacy against POLCO ([9]; Table J, 80 g/ha): 90%
Damage to crop plants TRZAS ([12]; Table J, 80 g/ha): 20%

Cn1nnnc1NC(=O)c1ccc(C(F)(F)F)cc1S(C)(=O)=O
Herbicidal efficacy against POLCO ([9]; Table J, 80 g/ha): 70%
Damage to crop plants TRZAS ([12]; Table J, 80 g/ha): 60%

Cc1c(C(=S)Nc2nnnn2C)ccc(S(C)(=O)=O)c1Cl [drawing 8]
Damage to crop plants BRSNW ([6]; Table A, 20 g/ha): 0%
Herbicidal efficacy against ABUTH ([7]; Table A, 20 g/ha): 90%
Herbicidal efficacy against PHBPU ([5]; Table A, 20 g/ha): 20%

Cc1c(C(=O)Nc2nnnn2C)ccc(S(C)(=O)=O)c1Cl [drawing 9]
Damage to crop plants BRSNW ([6]; Table A, 20 g/ha): 20%
Herbicidal efficacy against ABUTH ([7]; Table A, 20 g/ha): 70%
Herbicidal efficacy against PHBPU ([5]; Table A, 20 g/ha): 0%

CCCn1nnnc1NC(=S)c1ccc(C(F)(F)F)c(S(C)(=O)=O)c1C [drawing 10]
Damage to crop plants ORYSA ([13]; Table B): 0%
Herbicidal efficacy against ECHCG ([14]; Table B): 20%
Herbicidal efficacy against CYPES [15]: 100%

CCCn1nnnc1NC(=O)c1ccc(C(F)(F)F)c(S(C)(=O)=O)c1C [drawing 11]
Damage to crop plants ORYSA ([13]; Table B): 50%
Herbicidal efficacy against ECHCG ([14]; Table B): 0%
Herbicidal efficacy against CYPES [15]: 0%

Cc1c(C(=S)Nc2nnnn2C)ccc(C(F)(F)F)c1S(C)(=O)=O [drawing 18]
Damage to crop plants ORYSA ([13]; Table F): 20%
Damage to crop plants BRSNW ([6]; Table F, 20 g/ha): 0%
Herbicidal efficacy against POLCO ([3]; Table F, 20 g/ha): 60%
Herbicidal efficacy against ECHCG ([14]; Table F): 100%

Cc1c(C(=O)Nc2nnnn2C)ccc(C(F)(F)F)c1S(C)(=O)=O [drawing 19]
Damage to crop plants ORYSA ([13]; Table F): 50%
Damage to crop plants BRSNW ([6]; Table F, 20 g/ha): 30%
Herbicidal efficacy against POLCO ([3]; Table F, 20 g/ha): 0%
Herbicidal efficacy against ECHCG ([14]; Table F): 20%

Cc1c(C(=S)Nc2nnnn2C)ccc(S(C)(=O)=O)c1Cl [drawing 22]
Herbicidal efficacy against SETVI [16]: 40%
Herbicidal efficacy against ECHCG [17]: 70%
Herbicidal efficacy against AMARE [18]: 40%

Cc1c(C(=O)Nc2nnnn2C)ccc(S(C)(=O)=O)c1Cl [drawing 23]
Herbicidal efficacy against SETVI [16]: 0%
Herbicidal efficacy against ECHCG [17]: 10%
Herbicidal efficacy against AMARE [18]: 20%

CCCn1nnnc1NC(=S)c1ccc(C(F)(F)F)c(S(C)(=O)=O)c1C [drawing 24]
Herbicidal efficacy against ALOMY [19]: 80%
Herbicidal efficacy against LOLMU ([20]; Table I): 20%
Damage to crop plants ZEAMX ([21]; Table I): 0%

CCCn1nnnc1NC(=O)c1ccc(C(F)(F)F)c(S(C)(=O)=O)c1C [drawing 25]
Herbicidal efficacy against ALOMY [19]: 30%
Herbicidal efficacy against LOLMU ([20]; Table I): 0%
Damage to crop plants ZEAMX ([21]; Table I): 20%

Cc1c(C(=S)Nc2nnnn2C)ccc(C(F)(F)F)c1S(C)(=O)=O [drawing 28]
Herbicidal efficacy against AVEFA [22]: 90%
Herbicidal efficacy against LOLMU ([20]; Table K): 90%
Damage to crop plants ZEAMX ([21]; Table K): 50%

Cc1c(C(=O)Nc2nnnn2C)ccc(C(F)(F)F)c1S(C)(=O)=O [drawing 29]
Herbicidal efficacy against AVEFA [22]: 70%
Herbicidal efficacy against LOLMU ([20]; Table K): 70%
Damage to crop plants ZEAMX ([21]; Table K): 70%
